Measurements published in paper PMC10929621, “An Engineered Biarylitide Cross-Linking P450 from RiPP Biosynthesis Generates Alternative Cyclic Peptides” (Organic Letters, 2024).

Tested on: Blt-M1 (P450Blt A231V-H234L)
Test: Deuterium loss on cyclization by Blt-M1
Assay type: biochemical, Micromonospora sp. MW-13
Conditions: deuterium at C2 of His-3, HRMS
Method: Finally, we sought to clarify the nature of the cross-link within 5 formed by Blt-M1 as no equivalent cross-linked tripeptide natural product has been identified. Scaled enzymatic cyclization of Nle-2 (N-terminal Met residue was replaced with norleucine (Nle) to avoid sulfoxidation due to the release of reactive oxygen intermediates during catalysis) and purification of Nle-5 were then performed. […] We turned to the use of peptide deuteration to resolve this cross-link, which based on WT biarylitide reactivity could be either C–C or C–N. This required synthesis and turnover of a deuterated version of Nle-2 with deuterium at C2 of the His-3 residue (Nle-2^3d).[17] […]
The UV-visible spectra of the P450 enzymes were obtained using a Jasco V-750 spectrophotometer as has been previously reported.1 The spectra were measured until it reached a stable peak. CO difference spectra were obtained using a Jasco V-750 spectrophotometer at 30 °C as has been previously described.1 The UV-vis spectra were measured between 390–600 nm every 5 mins until the spectra was stable.1, 4 Substrate interaction with the P450s was measured using UV-visible absorbance spectroscopy carried out on a Jasco V-750 spectrophotometer according to previously reported protocol.1 Amplitudes of the different spectra were extrapolated (ΔA = Amax - Amin) and plotted against the substrate concentration. […]

Substance: NleRHLY (sidechain bridge or staple) [Nle-5, cross-linked peptide from enzymatic cyclization of Nle-2 by Blt-M1]
- loss of deuterium upon cyclization: loss of deuterium
